In US12139443B2, “Concentrated liquid compositions of urease inhibitors for nitrogen sources” (priority 2017, dated 2024):
Values joined by “and” are separate entries in the source; they are usually repeats but may differ in a detail not shown here. Equal values may be shown once. Read-outs that look alike come from different tables or passages of the source.

Key:
[1] = Time to dissolution of nitrification inhibitor coated with urease formulation; type: physicochemical; details: UAN 30
Excerpt: • 1. In a 4 oz. glass jar add 97 grams of either Deionized (DI) Water or UAN 30. • 2. Add a ¾ inch magnetic stir bar and place on a Corning/Model PC-420 Heater/Stirrer and set stirring speed at #7. • 3. Charge 3 grams of a nitrification inhibitor coated or uncoated and start stop watch. • 4. Visually determine the point at which all particles of the nitrification inhibitor have dissolved and record this time as time to dissolution.

[2] = Thermal Stability of NBPT (oven exposure, weight loss and HPLC); type: physicochemical; details: for % NBPT present by LC/UV % w/w: single determination
Protocol: One of the advantages of this invention is the application, at moderate temperatures, of thermally sensitive urease inhibitor onto the surfaces of urea. Moderate temperatures are defined as a range of about 20-70° C. Testing procedures were established to exactly weigh samples of approximately 1 gram of NBPT in an aluminum pan and expose them to different temperatures in an oven over varying amounts of time. The initial weight of NBPT in the pan was compared to the final weight of sample in the pan. The % NBPT was then determined by HPLC of the residual from the final weight pan by the following procedure:
1. Crush a portion of sample (˜5 g) using mortar and pestle.
2. Weigh about a 100 mg sample, in duplicate, and add to separate 10 mL volumetric flasks.
3. Bring to volume of 10 ml volumetric flask with 50:50 ACN(Acetonitrile):H2O.
5. Transfer a portion through a Nylon 0.45 μm syringe filter into an HPLC vial.
6. Inject on LC/UV (15-μg/mL calibration standard).

[3] = system: nitrification of urea fertilizer; assay: University of Arkansas soil incubation trial, urea coated with N Bound; details: Urea without inhibitor
Protocol: To determine what minimum effective levels of DCD are required to meet acceptable levels of nitrification inhibition and to maximize performance versus inhibitor level, studies were performed at Auburn University, South Dakota State University and University of Arkansas. These studies were performed by coating urea with a liquid nitrification inhibitor product, trade name N Bound, which contained approximately 28% DCD. The application rates of N Bound on urea (Units are in quarts of N Bound/ton of urea) was varied to measure application level versus the conversion of urea to nitrate measured as mg NO3 extracted from the applied soil.
A trial conducted at University of Arkansas was designed to measure and compare the nitrate concentrations from the microbial activity on untreated urea and ureas coated with N Bound that had been applied to classified as a Calhoun silt loam (pH=7.4) at varying rates. The objective was to determine the minimum inhibitor application rate to achieve optimize nitrification inhibition.

[4] = Crush strength of coated urea granules; type: physicochemical; details: New Leader tester scale 1-10 (1 very poor), average of 10 runs
Excerpt: Crush strength is the minimum pressure required to crush a granule of urea. Crush strength is of concern during the application of urea and is a measure of the urea's expected broadcast distance. Crush strength is related to the maximum rotations per minute (rpm) for the spinner portion of the urea spreader. The higher the rpms of the spinner, the more distance the urea can be broadcasted. High rpms require high crush strength urea granules in order for the granules not to be pulverized to dust by the broadcast process.
In order for the coated granules of urea to be tested, they were first sifted through a series of screens to ensure that the urea granules to be tested were of similar particle size as the urea particle size has an impact on crush resistance. A mesh size of 320-400 was chosen as the urea particle size. A New Leader crushing strength tester was used utilizing a scale from 1-10 wherein a reading of 1 is rated very poor crush strength. The results in Table 14 are for coated urea stored at 25° C. and at 50° C. Also included in Table 14 is the weight percentage of DMSO of the composition of the coated urea.
However, it should be understood that a different method of applying example 86 to the surfaces of the urea granules might result in better coverage (e.g., atomization onto the granules). […]

Protocol for urease enzyme: The treated urea was prepared as follows:
• 1. Charging weight of urea as directed by Table 8 to a container. • 2. The urea was slowly agitated with overhead stirrer with U shaped agitator blade. • 3. The example was slowly dripped on the urea while mixing in the amount as directed by Table 8 (rate=3 quarts/ton of urea). • 4. […] The coated urea was placed in a jar and sealed.
• 1. In a 6″×9″ rectangular Tupperware sealable container with holes drilled on each end and sealed with tape charge 400 grams of West Texas Sandy Loam Soil and 100 grams of distilled water, mix thoroughly to a consistency of thick “mud” (% moisture should be between 30-40%). • 2. Calculate the surface area to be treated. • a. 6″×9.5″=sq in/1 44 sq in/sq ft=0.395 sq ft • b. 0.395 sq ft/43,560 sq ft/acre=0.0000091 acres • 3. Calculate amount of urea and treated urea to charge to the containers of soil • a. Application Rate: 400 pounds urea per acre • b. 400 lbs/acre/43560 sq ft/acre=0.009 lbs/sq ft×0.395 sq ft/container=0.0036 lbs/container×454 g/lb=1.65 grams urea per container. • c. Add 1.65 grams of urea and various treated ureas to each container • 4. Ammonia Volatilization Screening Test • a. Evenly distribute over the soil in each container 1.65 grams of example to be tested, • b. Seal container, • c. Take readings of ammonia volatilization of each container over a selected period of time as directed in Table 9, • i. Drager tube measurement • (1) Use Drager pump with 0-600 ppm (or range TBD) ammonia drager tube. • (2) At specified times, quickly remove the tape on one end of container and insert the drager tube/pump. • (3) Fully squeeze pump 20 times allowing enough time for pump to fully inflate between each squeeze and then remove the tube from the container and read. • (4) Open container lid and vent the remaining ammonia gas out of the container and reseal. • (5) Repeat procedure at next designated time.

Compound: N#CN=C(N)N [DCD untreated, Dicyandiamide]
- Initial Appearance ([1]; 3%): clear
- Time to Dissolution ([1]; 3 grams in 97 grams (3%)): 1740 s

Compound: CCCCNP(N)(N)=S [NBPT, N-(n-butyl)thiophosphoric triamide]
- % NBPT present by LC/UV Average ([2]; 50° C./3600 sec): 99.38%
- % Weight Loss Average ([2]; 50° C./3600 sec): 0.0%
- % NBPT present by LC/UV % w/w ([2]; 50° C./3600 sec): 99.17% and 99.58%
- % NBPT present by LC/UV Average ([2]; 70° C./900 sec): 99.38%
- % Weight Loss Average ([2]; 70° C./900 sec): 0.26%
- % NBPT present by LC/UV % w/w ([2]; 70° C./900 sec): 99.53% and 99.23%
- % NBPT present by LC/UV Average ([2]; 100° C./300 sec): 22.92%
- % Weight Loss Average ([2]; 100° C./300 sec): 10.36%
- % NBPT present by LC/UV % w/w ([2]; 100° C./300 sec): 23.59% and 22.25%
- % NBPT present by LC/UV Average ([2]; 120° C./180 sec): 4.67%
- % Weight Loss Average ([2]; 120° C./180 sec): 13.55%
- % NBPT present by LC/UV % w/w ([2]; 120° C./180 sec): 4.79% and 4.54%
- % NBPT present by LC/UV Average ([2]; 140° C./90 sec): 3.84%
- % Weight Loss Average ([2]; 140° C./90 sec): 13.42%
- % NBPT present by LC/UV % w/w ([2]; 140° C./90 sec): 3.68% and 3.99%
- degradation (HPLC) ([2]; 15 minutes at 70° C.): no degradation
- % NBPT present by LC/UV Average ([2]; NBPT std, not heated): 99.25%
- % NBPT present by LC/UV % w/w ([2]; NBPT std, not heated): 99.35% and 99.16%
- thermal stability (HPLC) ([2]; temperatures >100° C.): poor thermal stability

Compound: NC(N)=O [Urea]
- Ammonia Reading (urease enzyme; 72 hours, 1.65 grams treated urea (3 quarts/ton) on West Texas Sandy Loam Soil): 220 ppm
- Ammonia Reading (urease enzyme; 144 hours): 475 ppm
- Ammonia Reading (urease enzyme; 264 hours): 460 ppm
- Nitrate-N Concentration ([3]; Day 1, Calhoun silt loam): 113.4 mg NO3—N/kg soil
- Nitrate-N Concentration ([3]; Day 3): 98.6 mg NO3—N/kg soil
- Nitrate-N Concentration ([3]; Day 7): 151.6 mg NO3—N/kg soil
- Nitrate-N Concentration ([3]; Day 14): 202.8 mg NO3—N/kg soil
- Nitrate-N Concentration ([3]; Day 21): 221.2 mg NO3—N/kg soil
- Nitrate-N Concentration ([3]; Day 28): 262.3 mg NO3—N/kg soil
- Nitrate-N Concentration ([3]; Day 35): 255.3 mg NO3—N/kg soil
- Crush Strength stored 24 hrs. @ 25 C. [4]: 5.4
- Crush Strength stored 24 hrs. @ 50 C. [4]: 6.75
